Measurements: patent US20040253268A1, “Biological compositions and methods for treatment of uterine cancer” (priority 2003, published 2004)

What was measured:
[1] = system: uterine cancer cell line CRL-1622; experiment: Tumor growth in 615 strain mouse model of human uterine cancer (Example 6); assay type: in vivo, 615 mice; settings: day 31 after tumor inoculation; 30 days dosing; AY/NY 0.3 ml/day oral, MMC 0.8 mg/kg/day s.c.
From the text: The following example illustrates the benefit of a biological composition of the invention in a 615 strain mouse model of human uterine cancer. The growth of the tumor in the mice was studied.
Murine transplantable uterine cancer type CRL-1622 closely resembles the human uterine cancer pathology. The uterine cancer cell line CRL-1622 can be ordered from the American Type Culture Collection.
(§1) The biological composition comprising 10^8 cells per ml of activated and conditioned yeast cells of the strain Saccharomyces carlsbergensis Hansen strain AS2.605 was prepared by the methods described in Section 5.1 and subsections therein.
(§2) The animals used to generate the uterine cancer cells for the experiments were female 615 mice (obtainable from the Chinese Academy of Military Medical Sciences, Beijing, China), 4 to 6 months, having an average body weight of about 20 to 22 gram. About 1.2×10^7 viable tumor cells of the uterine cancer cell line CRL-1 622 (obtainable from the Cancer Institute, Chinese Academy of Medical Sciences, Beijing, China) in about 0.2 ml culture suspension were injected subcutaneously into the animals. […]
The mice received the biological composition, untreated yeast cells, MMC or saline on the same day as the tumor cells were transplanted. […] The weight of the mice and the weight of the tumor were determined by standard techniques.

[2] = system: uterine cancer cell line CRL-1622; experiment: Survival in 615 strain mouse model of human uterine cancer (Example 7); assay type: in vivo; settings: 2AY/2NY 0.5 ml/day oral; for Number of live animals remaining in the groups after 30 days of treatment: 30 mice per group, 2MMC 1.2 mg/kg/day s.c.
Protocol: The following example illustrates the benefit of a biological composition of the invention in a model of human uterine cancer in a 615 strain mouse. The survival time of mice after tumor injection and treatment was studied.
as §1
(§3) The animals were prepared in a similar manner as described in Section 6.1. 7.2 Experimental Design The mice injected with tumor cells were immediately divided into 4 experimental groups of ten mice per group and one control group. The four experimental groups were triplicated (i.e., using a total of 120 mice in the experimental groups). In group 2AY, the mice received 0.5 ml of the biological composition once per day. In group 2NY, the mice received 0.5 ml of the untreated yeast cells once per day. In group 2MMC, the mice were injected subcutaneously with 1.2 mg of mitomycin C (MMC) per kg body weight per day. In group 2CK1, the mice received 0.5 ml of physiological saline once per day.
(§4) The mice received the biological composition, untreated yeast cells, MMC or saline on the same day as the tumor cells were transplanted. The mice in group 2CK2 also started receiving saline on the same day as the other four groups. The biological composition, untreated yeast cells and saline were administered orally by a feeding tube and the MMC by subcutaneous injection for 30 consecutive days. The mice were observed over 6 months from the day of tumor inoculation and survival was recorded. The weight of the mice and the weight of the tumor were determined by standard techniques.

[3] = system: uterine cancer cell line HTB-114; experiment: Tumor growth in kun ming mouse model of human uterine cancer (Example 8); assay type: in vivo; settings: day 31 after tumor inoculation; 30 days dosing; AY/NY 0.3 ml/day oral, VCR 3 mg/kg/day i.v.
From the text: The following example illustrates the benefit of a biological composition of the invention in a kun ming mouse model of human uterine cancer. The growth of the tumor in the mice was studied.
Murine transplantable uterine cancer type HTB-114 closely resembles the human uterine cancer pathology. The uterine cancer cell line HTB-114 can be ordered from the American Type Culture Collection.
as §1
as §2, with “kun ming mouse” for “615 mice”, “5” for “4”, “HTB-114” for “CRL-1 622”
The mice received the biological composition, untreated yeast cells, VCR or saline on the same day as the tumor cells were transplanted. […] The weight of the mice and the weight of the tumor were determined by standard techniques.

[4] = system: uterine cancer cell line HTB-114; experiment: Survival in kun ming mouse model of human uterine cancer (Example 9); assay type: in vivo; settings: 2AY/2NY 0.5 ml/day oral; for Number of live animals remaining in the groups after 30 days of treatment: 30 mice per group, 2VCR 4.5 mg/kg/day i.v.
Protocol: The following example illustrates the benefit of a biological composition of the invention in a kun ming mouse model of human uterine cancer. The survival time of mice after tumor injection and treatment was studied.
The biological composition comprising 10^8 cells per ml of activated and conditioned yeast cells of the strain Saccharomyces cartsbergensis Hansen strain AS2.605 was prepared by the methods described in Section 5.1 and subsections therein.
The animals were prepared in a similar manner as described in Section 8.1.
as §3, with “The” for “The animals were prepared in a similar manner as described in Section 6.1. 7.2 Experimental Design The”, “2VCR,” for “2MMC,”, “intravenously” for “subcutaneously”, “4.5” for “1.2”, “[…] (VCR)” for “mitomycin C (MMC)”
as §4, with “VCR” for “MMC”, “intravenous” for “subcutaneous”

[5] = 0 month after cessation of treatment
[6] = 1 month after cessation of treatment
[7] = 2 months after cessation of treatment
[8] = 3 months after cessation of treatment
[9] = 4 months after cessation of treatment
[10] = 5 months after cessation of treatment
[11] = 6 months after cessation of treatment
[12] = surviving mice after 6 months observation, 2MMC 1.2 mg/kg/day s.c. for 30 days
[13] = surviving mice after 6 months observation, 2VCR 4.5 mg/kg/day i.v. for 30 days

## CO[C@@]12[C@H](COC(N)=O)C3=C(C(=O)C(C)=C(N)C3=O)N1C[C@@H]1N[C@@H]12 [MMC, mitomycin C]
[1]
  mean weight of mice and standard deviation: 18.3 ± 3.1 g
  mean weight of tumor nodules and standard deviation: 3.56 ± 2.32 mg
[2]; [5]
  Number of live animals remaining in the groups after 30 days of treatment: 30
[2]; [6]
  Number of live animals remaining in the groups after 30 days of treatment: 28
[2]; 2MMC 1.2 mg/kg/day s.c. for 30 days, observed over 6 months
  survival time: all died during the experiment
[2]; [7]
  Number of live animals remaining in the groups after 30 days of treatment: 26
[2]; [8]
  Number of live animals remaining in the groups after 30 days of treatment: 18
[2]; [9]
  Number of live animals remaining in the groups after 30 days of treatment: 7
[2]; [10]
  Number of live animals remaining in the groups after 30 days of treatment: 0
[2]; [11]
  Number of live animals remaining in the groups after 30 days of treatment: 0
[2]; [12]
  mean weight of mice and standard deviation: all animals dead
  mean weight of tumor nodules and standard deviation: all animals dead

## CC[C@]1(O)C[C@@H]2CN(CCc3c([nH]c4ccccc34)[C@@](C(=O)OC)(c3cc4c(cc3OC)N(C)[C@H]3[C@@](O)(C(=O)OC)[C@H](OC(C)=O)[C@]5(CC)C=CCN6CC[C@]43[C@@H]65)C2)C1 [VCR, vinblastine]
[3]
  mean weight of mice and standard deviation: 18.3 ± 3.3 g
  mean weight of tumor nodules and standard deviation: 4.36 ± 2.45 g
[4]; [5]
  Number of live animals remaining in the groups after 30 days of treatment: 30
[4]; [6]
  Number of live animals remaining in the groups after 30 days of treatment: 28
[4]; 2VCR 4.5 mg/kg/day i.v. for 30 days, observed over 6 months
  survival time: all died during the experiment
[4]; [7]
  Number of live animals remaining in the groups after 30 days of treatment: 19
[4]; [8]
  Number of live animals remaining in the groups after 30 days of treatment: 11
[4]; [9]
  Number of live animals remaining in the groups after 30 days of treatment: 3
[4]; [10]
  Number of live animals remaining in the groups after 30 days of treatment: 0
[4]; [11]
  Number of live animals remaining in the groups after 30 days of treatment: 0
[4]; [13]
  mean weight of mice and standard deviation: all animals dead
  mean weight of tumor nodules and standard deviation: all animals dead
